Measurements as given in patent US10953094B2, “Pulse photodynamic treatment of photodamaged skin” (GALDERMA RESEARCH & DEVELOPMENT, priority 2013, dated 2021).

Key:
[1] = Same daylight PDT trial, pain VAS and skin reactions 1 week after sessions; type: in vivo, human
Protocol: A double-blind randomized-controlled trial has been conducted to determine whether daylight PDT is an efficient method for treating photodamaged skin. […] Neither the investigator nor the patient knew which agent was administered, as it was applied by a trained professional nurse. To enhance product/placebo penetration a subtle abrasion with sandpaper of the whole face was performed. Also, a sunscreen (Cetaphil Dermacontrol SPF30®) was applied to the entire sun-exposed area including the treatment area in both groups during daylight-PDT, to avoid sunburn. […] Similarly, there were no statistical differences in the effects experimented by patients by patients one week after sessions, and in some of these variables no effect was found depending on each session (below table).

[2] = Pulse time investigation (Method B), PPIX formation in healthy volunteers; type: in vivo, human; details: PPIX formation after 3 hours; pulse times 20, 40, 60, 180 min
Protocol: (§1) The formation of PPIX after 3 hours is seen in FIG. 8, and the relation to inflammation is seen in FIG. 9. […] The results are illustrated in Column 3 in FIGS. 4, 5, 6, and 7. […] Pain level is not changed.
Twenty-four healthy male volunteers of Scandinavian ancestry were included in the study (mean age 30 years, range 20-51). A treatment area was selected on the inside of both forearms of the volunteer. Each treatment area was divided into four minor treatment fields of the size 2×5 cm with at least 3 cm between each field using a prefabricated flexible template. In order to imitate skin lesions all fields were tape stripped 10 times with occlusive dressing before treatment (Tegaderm™ Roll, 3M, Glostrup, Denmark). […]
All fields were covered with light-impermeable, occlusive dressing. […] During and after illumination pain was recorded. […]
5-MAL-induced PpIX fluorescence was depicted non-invasively using a fluorescence camera (Medeikonos AB, Gothenburg, Sweden). The amount of PpIX fluorescence was calculated from the photographs by the program MatLab® (MatLab®, MathWorks, Natic, US). The amount of fluorescence was measured before tape stripping and cream application (baseline) and before and after illumination.
The photo bleaching is then the difference in PpIX fluorescence (AU) calculated from the pre and post illumination images.

[3] = Pulse exposure 30 min (Method A), investigation of efficacy and inflammation; type: in vivo; details: 30 min pulse exposure vs conventional 3-hour exposure
Protocol: as §1

facial photodamage = test: Double-blind randomized-controlled trial of daylight PDT, efficacy in facial photodamage; type: in vivo, human
Protocol: A double-blind randomized-controlled trial has been conducted to determine whether daylight PDT is an efficient method for treating photodamaged skin. […] Neither the investigator nor the patient knew which agent was administered, as it was applied by a trained professional nurse. To enhance product/placebo penetration a subtle abrasion with sandpaper of the whole face was performed. Also, a sunscreen (Cetaphil Dermacontrol SPF30®) was applied to the entire sun-exposed area including the treatment area in both groups during daylight-PDT, to avoid sunburn. Efficacy was evaluated after 1 month of the third (last) daylight session.

[4] = reaction 1 week after session 1
[5] = reaction 1 week after session 2
[6] = reaction 1 week after session 3
[7] = out of 30 subjects, 1 month after third daylight session
[8] = specific photodamage severity score, 1 month after third session

Pain VAS score, mean ([1]; after session 1): 0.80 | Pain VAS score, median ([1]; after session 1): (0) | Pain VAS score, mean ([1]; after session 2): 0.60 | Pain VAS score, median ([1]; after session 2): (0) | Pain VAS score, mean ([1]; after session 3): 1.13 | Pain VAS score, median ([1]; after session 3): (0) | Desquamation score 0, % of subjects [1, 4]: (53.3%) | Desquamation score 1, % of subjects [1, 4]: (30%) | Desquamation score 2, % of subjects [1, 4]: (16.7%) | Desquamation score 3, % of subjects [1, 4]: (0%) | Erythema score 0, % of subjects [1, 4]: (66.7%) | Erythema score 1, % of subjects [1, 4]: (26.7%) | Erythema score 2, % of subjects [1, 4]: (6.7%) | Erythema score 3, % of subjects [1, 4]: (0%) | Oedema score 0, % of subjects [1, 4]: (100%) | Oedema score 1, % of subjects [1, 4]: (0%) | Oedema score 2, % of subjects [1, 4]: (0%) | Oedema score 3, % of subjects [1, 4]: (0%) | Oozing score 0, % of subjects [1, 4]: (100%) | Oozing score 1, % of subjects [1, 4]: (0%) | Oozing score 2, % of subjects [1, 4]: (0%) | Oozing score 3, % of subjects [1, 4]: (0%) | Pigmentation score 0, % of subjects [1, 4]: (96.7) % | Pigmentation score 1, % of subjects [1, 4]: (3.3%) | Pigmentation score 2, % of subjects [1, 4]: (0%) | Pigmentation score 3, % of subjects [1, 4]: (0%) | Vesiculation score 0, % of subjects [1, 4]: (100%) | Vesiculation score 1, % of subjects [1, 4]: (0%) | Vesiculation score 2, % of subjects [1, 4]: (0%) | Vesiculation score 3, % of subjects [1, 4]: (0%) | Desquamation score 0, % of subjects [1, 5]: (50%) | Desquamation score 1, % of subjects [1, 5]: (40%) | Desquamation score 2, % of subjects [1, 5]: (10%) | Desquamation score 3, % of subjects [1, 5]: (0%) | Erythema score 0, % of subjects [1, 5]: (63.3%) | Erythema score 1, % of subjects [1, 5]: (36.7%) | Erythema score 2, % of subjects [1, 5]: (0%) | Erythema score 3, % of subjects [1, 5]: (0%) | Oedema score 0, % of subjects [1, 5]: (100%) | Oedema score 1, % of subjects [1, 5]: (0%) | Oedema score 2, % of subjects [1, 5]: (0%) | Oedema score 3, % of subjects [1, 5]: (0%) | Oozing score 0, % of subjects [1, 5]: (100%) | Oozing score 1, % of subjects [1, 5]: (0%) | Oozing score 2, % of subjects [1, 5]: (0%) | Oozing score 3, % of subjects [1, 5]: (0%) | Pigmentation score 0, % of subjects [1, 5]: (96.7%) | Pigmentation score 1, % of subjects [1, 5]: (3.3%) | Pigmentation score 2, % of subjects [1, 5]: (0%) | Pigmentation score 3, % of subjects [1, 5]: (0%) | Vesiculation score 0, % of subjects [1, 5]: (100%) | Vesiculation score 1, % of subjects [1, 5]: (0%) | Vesiculation score 2, % of subjects [1, 5]: (0%) | Vesiculation score 3, % of subjects [1, 5]: (0%) | Desquamation score 0, % of subjects [1, 6]: (50%) | Desquamation score 1, % of subjects [1, 6]: (40%) | Desquamation score 2, % of subjects [1, 6]: (10%) | Desquamation score 3, % of subjects [1, 6]: (0%) | Erythema score 0, % of subjects [1, 6]: (76.7%) | Erythema score 1, % of subjects [1, 6]: (23.3%) | Erythema score 2, % of subjects [1, 6]: (0%) | Erythema score 3, % of subjects [1, 6]: (0%) | Oedema score 0, % of subjects [1, 6]: (100%) | Oedema score 1, % of subjects [1, 6]: (0%) | Oedema score 2, % of subjects [1, 6]: (0%) | Oedema score 3, % of subjects [1, 6]: (0%) | Oozing score 0, % of subjects [1, 6]: (100%) | Oozing score 1, % of subjects [1, 6]: (0%) | Oozing score 2, % of subjects [1, 6]: (0%) | Oozing score 3, % of subjects [1, 6]: (0%) | Pigmentation score 0, % of subjects [1, 6]: (86.7%) | Pigmentation score 1, % of subjects [1, 6]: (13.3%) | Pigmentation score 2, % of subjects [1, 6]: (10%) | Pigmentation score 3, % of subjects [1, 6]: (0%) | Vesiculation score 0, % of subjects [1, 6]: (100%) | Vesiculation score 1, % of subjects [1, 6]: (0%) | Vesiculation score 2, % of subjects [1, 6]: (0%) | Vesiculation score 3, % of subjects [1, 6]: (0%) | Pain level [3]: not changed | inflammation (erythema) [3]: clearly diminishes
Compound: COC(=O)CCC(=O)CN [Metvix, methyl aminolevulinate]
pulse exposure time at which PPIX concentration speeds up [2]: 20 to 40 min | facial improvement, number of subjects (facial photodamage; [7]): 14 | facial success, number of subjects (facial photodamage; [7]): 11 | Coarse lines: failure, % of subjects (facial photodamage; [8]): (30%) | Coarse lines: improvement, % of subjects (facial photodamage; [8]): (50%) | Coarse lines: sucess, % of subjects (facial photodamage; [8]): (20%) | Erythema: failure, % of subjects (facial photodamage; [8]): (20%) | Erythema: improvement, % of subjects (facial photodamage; [8]): (53.3%) | Erythema: sucess, % of subjects (facial photodamage; [8]): (26.7%) | Fine lines: failure, % of subjects (facial photodamage; [8]): (20%) | Fine lines: improvement, % of subjects (facial photodamage; [8]): (43.3%) | Fine lines: sucess, % of subjects (facial photodamage; [8]): (36.7%) | Mottled pigmentation: failure, % of subjects (facial photodamage; [8]): (23.3%) | Mottled pigmentation: improvement, % of subjects (facial photodamage; [8]): (60%) | Mottled pigmentation: sucess, % of subjects (facial photodamage; [8]): (16.7%) | Sallowness: failure, % of subjects (facial photodamage; [8]): (16.7%) | Sallowness: improvement, % of subjects (facial photodamage; [8]): (30%) | Sallowness: sucess, % of subjects (facial photodamage; [8]): (53.3%) | Tactile roughness: failure, % of subjects (facial photodamage; [8]): (16.7%) | Tactile roughness: improvement, % of subjects (facial photodamage; [8]): (20%) | Tactile roughness: sucess, % of subjects (facial photodamage; [8]): (63.3%)
